Where a name gives a salt, the structure may show the parent alone. Read-outs that look alike come from different tables or passages of the source.
Key:
[1] = target: full-length human PRMT1 isoform 1 (GST-tagged) (Homo sapiens, UniProt Q99873); test: PRMT1 Biochemical Assay (3H-SAM Flashplate, peptide substrate)
Method in brief: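 Tritiated methyl transfer from 3H-SAM onto biotinylated peptide, captured on streptavidin Flashplates and counted. Baculovirus-expressed GST-PRMT1 and compound were preincubated 30 min at room temperature in Bicine buffer pH 7.6. Cold SAM at 300 uM final ended the reaction.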

[2] = target: full-length human PRMT8 isoform 1 (Homo sapiens, UniProt Q9NR22); test: PRMT8 Biochemical Assay (3H-SAM Flashplate, peptide substrate); settings: read-out: Biochemical IC50 PRMT8
Chain of full-length human PRMT8 isoform 1 (Q9NR22 whole entry, canonical isoform): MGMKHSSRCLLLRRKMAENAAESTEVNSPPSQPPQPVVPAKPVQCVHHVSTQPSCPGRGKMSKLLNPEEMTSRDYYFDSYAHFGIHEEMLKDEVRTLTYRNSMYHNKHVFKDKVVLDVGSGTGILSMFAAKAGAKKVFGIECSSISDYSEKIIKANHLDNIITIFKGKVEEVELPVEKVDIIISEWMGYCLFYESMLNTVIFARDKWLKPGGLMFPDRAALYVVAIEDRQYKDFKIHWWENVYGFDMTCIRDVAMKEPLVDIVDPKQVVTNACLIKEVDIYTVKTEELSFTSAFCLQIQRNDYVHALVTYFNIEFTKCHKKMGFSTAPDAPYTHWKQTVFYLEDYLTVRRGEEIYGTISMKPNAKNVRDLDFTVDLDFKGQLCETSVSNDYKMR
Method in brief: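 Scintillation Flashplate capture of biotinylated histone H4 (31-45) peptide (150 nM) methylated by 1.5 nM PRMT8 using 3H-SAM (50 nM) with unlabelled SAM (550 nM); enzyme and compound preincubated 30 min, room temperature, in Bicine pH 7.6 buffer with TCEP, BSG, Tween 20 and 2% DMSO. Stopped with excess cold SAM (400 uM); IC50 from % inhibition, min control 1 mM SAH.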

[3] = single experiment or average of multiple experiments

Chain of full-length human PRMT1 isoform 1 (GST-tagged) (Q99873 with tags, fused parts or gaps): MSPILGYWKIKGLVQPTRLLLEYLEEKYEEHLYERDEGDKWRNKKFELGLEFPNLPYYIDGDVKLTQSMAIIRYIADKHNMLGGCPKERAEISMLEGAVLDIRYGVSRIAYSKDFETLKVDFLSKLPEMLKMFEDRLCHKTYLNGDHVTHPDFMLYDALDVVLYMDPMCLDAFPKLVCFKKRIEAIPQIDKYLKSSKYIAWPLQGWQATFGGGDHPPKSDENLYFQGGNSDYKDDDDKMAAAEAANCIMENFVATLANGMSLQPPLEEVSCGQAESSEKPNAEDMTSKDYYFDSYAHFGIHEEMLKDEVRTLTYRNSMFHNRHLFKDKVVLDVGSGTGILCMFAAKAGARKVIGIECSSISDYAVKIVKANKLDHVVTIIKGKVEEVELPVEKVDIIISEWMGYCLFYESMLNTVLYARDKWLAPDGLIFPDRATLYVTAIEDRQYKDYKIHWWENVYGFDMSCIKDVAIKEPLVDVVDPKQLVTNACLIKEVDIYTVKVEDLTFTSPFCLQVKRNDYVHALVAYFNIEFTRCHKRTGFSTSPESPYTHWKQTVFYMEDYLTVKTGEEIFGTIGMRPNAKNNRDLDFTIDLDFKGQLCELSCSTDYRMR

Structure (SMILES)	IC50 [1] [nM]	IC50 [1, 3] [nM]	IC50 [2] [nM]	IC50 [2, 3] [nM]
CNCCN(C)Cc1c[nH]nc1[C@H]1CC[C@H](N(CCCOC)C(=O)CC(C)C)CC1 [Compound 241]	< 100	22.4	< 100	48.9
CNCCN(C)Cc1c[nH]nc1[C@H]1CC[C@@H](N(CCCOC)C(=O)CC(C)C)CC1 [Compound 242]	< 100	28.3	< 100	83.7
CCOCC1CC(c2n[nH]cc2CN(C)CCNC)CCC1(C)C (stereo not drawn) [Compound 202]	< 100	12.7	< 100	26.9
CNCCN(C)Cc1cnn(C)c1[C@H]1CC[C@@]2(CC1)CC(C)(C)CO2 [Compound 245, Methyl ([2-[methyl([1-methyl-5-[(5S,8S)-3,3-dimethyl-1-oxaspiro[4.5]decan-8-yl]-1H-pyrazol-4-yl]methyl)amino]ethyl])amine trifluoroacetic acid salt]	< 100	18.5	< 100	18.3
CNCCN(C)Cc1c[nH]nc1[C@H]1CC[C@@H](N(CCOc2ccccc2)C(=O)CCCOC)CC1 [Compound 228]	< 100	69	< 100	100
CNCCN(C)Cc1c[nH]nc1C1CCC2(CCCC2)OC1 (stereo not drawn) [Compound 199]	< 100	16.8	< 100	38.3
CNCCN(C)Cc1c[nH]nc1[C@H]1CC[C@H](N(CC(C)C)C(=O)CCCOC)CC1 [Compound 249]	< 100	24.2	< 100	84.5
CNCCN(C)Cc1c[nH]nc1[C@H]1CC[C@H](N(CC2CCOCC2)C(=O)CC(C)C)CC1 [Compound 192]	101 to 1000	216	101 to 1000	459
CNCCN(C)Cc1c[nH]nc1[C@H]1CC[C@H](N(CCOC)C(=O)CCOc2ccccc2)CC1 [Compound 230]	< 100	13.5	< 100	25.7
CN(CCN)Cc1c[nH]nc1[C@H]1CC[C@@]2(CC1)CC(C)(C)CO2 [Compound 207]	< 100	–	< 100	–
CNCCN(C)Cc1c[nH]nc1C1CCC(C)(C)[C@@H](C(=O)NCCC(C)C)C1 (stereo partly drawn) [Compound 263, (1S)-2,2-dimethyl-5-[4-({methyl[2-(methylamino)ethyl]amino}methyl)-1H-pyrazol-3-yl]-N-(3-methylbutyl)cyclohexane-1-carboxamide]	< 100	19.2	< 100	35.1
CNCCN(C)Cc1c[nH]nc1[C@H]1CC[C@@H](N(CCCOC)C(=O)CCC(C)C)CC1 [Compound 244]	< 100	39.8	101 to 1000	113
CNCCN(C)Cc1c[nH]nc1[C@H]1CC[C@@H](C(=O)N(C)CC(C)C)CC1 [Compound 215]	< 100	14.1	< 100	23
CNCCN(C)Cc1c[nH]nc1[C@H]1CC[C@@]2(CCC(C)(C)O2)CC1 [Compound 260]	< 100	20.2	< 100	37.3
CCN(C(=O)CCC(C)C)[C@H]1CC[C@H](c2n[nH]cc2CN(C)CCNC)CC1 [Compound 250]	< 100	24	< 100	42.4
CNCCN(C)Cc1c[nH]nc1C1CCC(=O)N(Cc2ccc(C(F)(F)F)cc2)C1 (stereo not drawn) [Compound 191]	< 100	50.4	101 to 1000	152
CNCCN(C)Cc1c[nH]nc1[C@H]1CC[C@@H](C(=O)N(CCCOC)CCC(C)C)CC1 [Compound 214]	< 100	19.8	< 100	27.4
CNCCN(C)Cc1c[nH]nc1[C@H]1CC[C@@H](C(=O)N(C)CCC(C)C)CC1 [Compound 210]	< 100	13.1	< 100	22.9
CCOC[C@@H]1C[C@H](COCC)C[C@H](c2n[nH]cc2CN(C)CCNC)C1 [Compound 189]	101 to 1000	108	101 to 1000	478
CCC(=O)N(CCOc1ccccc1)[C@H]1CC[C@@H](c2n[nH]cc2CN(C)CCNC)CC1 [Compound 220]	< 100	9.29	< 100	12.9
CNCCN(C)Cc1cn(C)nc1[C@H]1CC[C@@]2(CC1)CC(C)(C)CO2 [Compound 205, Methyl([1-methyl-3-[(5S,8S)-3,3-dimethyl-1-oxaspiro[4.5]decan-8-yl]-1H-pyrazol-4-yl]methyl)[2-(methylamino)ethyl]amine hydrochloride]	< 100	12.8	< 100	15.4

Results, then the compound that gave them:

IC50 [1] [nM]	IC50 [1, 3] [nM]	IC50 [2] [nM]	IC50 [2, 3] [nM]	Structure (SMILES)
< 100	6.94	< 100	12.8	CN(CCN)Cc1c[nH]nc1[C@H]1CC[C@]2(CC1)CC(C)(C)CO2 [Compound 208]
< 100	25.7	< 100	44	CNCCN(C)Cc1c[nH]nc1[C@H]1CC[C@@H](N(CCC(C)C)C(=O)CCOC)CC1 [Compound 235]
< 100	15.8	< 100	17.1	CNCCN(C)Cc1c[nH]nc1[C@H]1CC[C@@H](C(=O)N(C)CCOc2ccccc2)CC1 [Compound 259]
< 100	7.59	< 100	10.8	CNCCN(C)Cc1c[nH]nc1[C@H]1CC[C@H](C(=O)N(C)CCOc2ccccc2)CC1 [Compound 258]
< 100	27.8	< 100	43.9	CNCCN(C)Cc1c[nH]nc1[C@H]1CC[C@H](C(=O)N(C)CCC(C)C)CC1 [Compound 209]
< 100	6.44	< 100	15.4	CCC(=O)N(CCOc1ccccc1)[C@H]1CC[C@H](c2n[nH]cc2CN(C)CCNC)CC1 [Compound 221]
< 100	33.1	< 100	57.6	CNCCN(C)Cc1c[nH]nc1[C@H]1CC[C@H](C(=O)N(C)CC(C)C)CC1 [Compound 226]
< 100	12.6	< 100	23.8	CNCCN(C)Cc1c[nH]nc1[C@H]1CC[C@@H](N(CCCOC)C(=O)CCOc2ccccc2)CC1 [Compound 246]
< 100	19.3	< 100	63.1	CNCCN(C)Cc1c[nH]nc1C1CCC(C)(C)[C@@H](C(=O)NCC(C)C)C1 (stereo partly drawn) [Compound 266]
3010 to 10000	3500	3010 to 10000	5910	CNCCN(C)Cc1c[nH]nc1C1C[C@H](C(=O)N(C)CC(C)C)C(C)(C)[C@H](C(=O)N(C)CC(C)C)C1 (stereo partly drawn) [Compound 267]
< 100	7.15	< 100	11.7	CNCCN(C)Cc1c[nH]nc1[C@H]1CC[C@]2(CCOC2(C)C)CC1 [Compound 253]
101 to 1000	124	101 to 1000	352	CNCCN(C)Cc1c[nH]nc1C1CCC(=O)N(CCCOC)C1 (stereo not drawn) [Compound 190]
< 100	8.27	< 100	15.6	CNCCN(C)Cc1c[nH]nc1[C@H]1CC[C@]2(CCN(Cc3cc(F)cc(F)c3)C2=O)CC1 [Compound 197]
101 to 1000	149	101 to 1000	415	CCN(C(=O)CC1CCOCC1)[C@H]1CC[C@@H](c2n[nH]cc2CN(C)CCNC)CC1 [Compound 196]
< 100	8.96	< 100	15	CNCCN(C)Cc1c[nH]nc1[C@H]1CC[C@H](N(CCOc2ccccc2)C(=O)CCOC)CC1 [Compound 219]
< 100	58.8	101 to 1000	171	CNCCN(C)Cc1c[nH]nc1C1CCC(C)(C)[C@H](C(=O)NCCCOC)C1 (stereo partly drawn) [Compound 265]
< 100	13	< 100	16.7	CNCCN(C)Cc1c[nH]nc1[C@H]1CC[C@@H](N(CCOC)C(=O)CCC(C)C)CC1 [Compound 261]
< 100	10.8	< 100	16	CNCCN(C)Cc1c[nH]nc1[C@H]1CC[C@H](N(CCOc2ccccc2)C(=O)CCCOC)CC1 [Compound 229]
< 100	29	< 100	57.8	CNCCN(C)Cc1c[nH]nc1[C@H]1CC[C@H](N(CCC(C)C)C(=O)CCOC)CC1 [Compound 236]
< 100	12.1	< 100	17.8	CNCCN(C)Cc1c[nH]nc1C1CCC(F)(F)CC1 [Compound 216]
< 100	28.4	< 100	84.4	CNCCN(C)Cc1n[nH]cc1[C@H]1CC[C@H](C(=O)NCCC(C)C)CC1 [Compound 203]
< 100	16.1	< 100	42.8	CNCCN(C)Cc1c[nH]nc1[C@H]1CC[C@H](N(CC(C)C)C(=O)CCOC)CC1 [Compound 234]
< 100	13.2	< 100	28.2	CNCCN(C)Cc1c[nH]nc1[C@H]1CC[C@H](N(CC(C)C)C(=O)CCCOC)CC1 [Compound 248]

From patent US11512053B2, “Arginine methyltransferase inhibitors and uses thereof” (priority 2013, dated 2022)
